Laboratory results from patent publication US20090215889A1, “Novel Use of Zinc Gluconate for Treating Hydradenitis Suppurativa” (LABCATAL, priority 2005, published 2009).
Several values for one entry are separate records, joined by “and”; a condition that tells them apart may be missing. Equal entries are not always repeated.

Columns and labels:
[1] = tested on: suppurative hidradenitis; conditions: cited from earlier work
[2] = tested on: suppurative hidradenitis; conditions: oral; open study on 80 patients; cited from earlier work
[3] = tested on: suppurative hidradenitis; assay: clinical observation of oral zinc gluconate in 20 patients with suppurative hidradenitis; type: in vivo, human; set-up: key to Rep (response of the individual patient): CR: complete remission; PR: partial remission
Procedure: The efficacy of zinc gluconate in the treatment of suppurative hidradenitis was verified by the clinical observation performed on 20 patients, 16 of whom were monitored for a period of up to 24 months.
20 patients, 14 women and 6 men, from 23 to 72 years old, whose history of the disease ranged from 6 to 13 years, were placed on 90 mg of zinc gluconate per day for a period of a few months to 3 years.
In 34% of the cases, the location of the lesions was inguinal, axillary in 24% of the cases, and on the buttocks in 17% of the cases. The other affected regions in 5% to 7% of the cases were the chest, the pubis or the perineum.
“Dose 1” is the dose administered at the start of the treatment. “Dose 2” is the maintenance dose. The medical monitoring was generally from 4 to 8 months, and in a few cases it was extended beyond 12 months.

[4] = tolerance to oral zinc gluconate doses; type: in vivo, human; conditions: for example 90 mg/day
[5] = Vidal monograph, overdose section; cited from earlier work
[6] = of 20 patients, 90 mg zinc gluconate per day, monitoring for several months

## CC(=O)O[C@]1(C(C)=O)CC[C@H]2[C@@H]3C=C(Cl)C4=CC(=O)[C@@H]5C[C@@H]5[C@]4(C)[C@H]3CC[C@@]21C [cyproterone acetate]
[1]; 100 mg/day of cyproterone acetate, small number of patients
  efficacy: efficacy only at large doses
[1]; dose reduced to 50 mg
  outcome on dose reduction: recurrence

## CC1=C(/C=C/C(C)=C/C=C/C(C)=C\C(=O)O)C(C)(C)CCC1 [isotretinoin]
[2]
  results of treatment: very mediocre results

## zinc gluconate
[3]; of 20 patients, 90 mg zinc gluconate per day
  patients for whom the treatment proved to be ineffective: one
[3]; [6]
  patients showing a full remission of the disease: 9 patients
  patients showing a full remission of the disease (percentage): 45%
  patients showing a partial remission: 6 patients
  patients showing a partial remission (percentage): 30%
[3]; oral, 60 to 120 mg per day attack treatment, 15 to 90 mg per day maintenance treatment
  efficacy in the treatment of suppurative hidradenitis: satisfactory efficacy
[3]; patient (No. 1-20), oral, Dose 1 60-120 mg/day at start, Dose 2 maintenance, monitoring 3 to >12 months
  Rep (response of the individual patient): PR (6×) and CR (9×) and ineff.
[4]
  observed side effects: only digestive
  systemic toxicity: no systemic toxicity to be feared
[4]; i.e. 6 gel capsules containing a 15 mg dose
  tolerance: usually good
[5]
  probability of an acute intoxication: zero
